Series [1] deals with Hepatocyte. Put plainly: Inhibition of HCV replication in hepatocytes measured by cellular replicon assay. It is filed as functional. As to conditions: Hepatitis C virus.
Series [2] is described as follows: Bioavailability in dog at 2 mg/kg, po. The format is ADME, organism-based, Canis lupus familiaris. As to conditions: in vivo.
The nature of series [3]: AUC in monkey at 2 mg/kg, po. To be noted: rhesus monkey, plasma.
Series [4] in a line: AUC in rat at 10 mg/kg, po. It is filed as ADME, organism-based. More on the design: dose 10 mg/kg, route oral. To be noted: plasma.
A short description of series [5]: Selectivity for human neutrophil elastase (HNE) over HCV NS3 protease.
Series [6] in a line: Bioavailability in monkey at 2 mg/kg, po. To be noted: rhesus monkey, in vivo.
Series [7] deals with NS3 (Hepatitis C virus, UniProt A3EZJ3). Briefly: Binding affinity at HCV NS3 protease. The arrangement: species or system Hepatitis C virus subtype 1b.
NS3, sequence (A3EZJ3 whole entry): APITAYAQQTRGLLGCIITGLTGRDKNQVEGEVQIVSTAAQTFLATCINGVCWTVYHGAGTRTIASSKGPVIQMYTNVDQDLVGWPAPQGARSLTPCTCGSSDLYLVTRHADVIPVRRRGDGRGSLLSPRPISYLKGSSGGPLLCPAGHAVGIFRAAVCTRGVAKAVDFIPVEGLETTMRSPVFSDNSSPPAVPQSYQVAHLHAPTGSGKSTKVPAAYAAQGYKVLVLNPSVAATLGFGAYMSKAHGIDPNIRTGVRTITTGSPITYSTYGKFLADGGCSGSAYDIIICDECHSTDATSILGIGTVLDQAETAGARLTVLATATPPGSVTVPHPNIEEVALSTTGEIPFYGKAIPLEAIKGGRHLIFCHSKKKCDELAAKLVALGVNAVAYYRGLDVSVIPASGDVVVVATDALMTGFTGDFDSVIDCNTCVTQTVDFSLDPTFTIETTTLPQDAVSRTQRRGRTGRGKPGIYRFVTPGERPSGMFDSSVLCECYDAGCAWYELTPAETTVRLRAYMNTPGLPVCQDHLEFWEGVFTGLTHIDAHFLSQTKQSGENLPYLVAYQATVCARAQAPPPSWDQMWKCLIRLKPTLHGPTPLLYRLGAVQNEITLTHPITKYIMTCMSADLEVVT
Series [8] relates to Huh-5-2. Briefly: Cytotoxicity against hepatoma cell line containing HCV replicon measured as change in GAPDH RNA level. The format is functional, Homo sapiens.
Series [9] is described as follows: Bioavailability in rat at 10 mg/kg, po. It is filed as ADME, organism-based. As to conditions: in vivo.
The nature of series [10]: AUC in dog at 2 mg/kg, po. The format is ADME, organism-based, Canis lupus familiaris. More on the design: dose 2 mg/kg, route oral. To be noted: plasma.
Series [11] can be described thus: Ratio of drug level in liver against plasma in rat. It is filed as ADME, organism-based.
Series [12] in a line: AUC in monkey at 3 mg/kg, po. To be noted: rhesus monkey, plasma.
A short description of series [13]: Bioavailability in dog at 3 mg/kg, po. It is filed as ADME, organism-based, Canis lupus familiaris. As to conditions: in vivo.
Series [14] can be described thus: Bioavailability in mouse. To be noted: in vivo. It is filed as ADME, organism-based.
Series [15] can be described thus: AUC in dog at 3 mg/kg, po. The arrangement: dose 3 mg/kg, route oral. It is filed as ADME, organism-based, Canis lupus familiaris. As to conditions: plasma.
Series [16] in a line: Bioavailability in monkey at 3 mg/kg, po. To be noted: rhesus monkey, in vivo.
Series [17] can be described thus: AUC in rat. The format is ADME, organism-based. To be noted: plasma.
A short description of series [18]: AUC(0-6h) in rat at 10 mg, po. To be noted: plasma. The format is ADME, organism-based. More on the design: time < 6 hr, dose 10 mg, route oral.

Each structure is given as a SMILES string.

Take `CC(C)(C)NC(=O)N[C@H](C(=O)N1C[C@H]2[C@@H]([C@H]1C(=O)NC(CC1CC1)C(=O)C(N)=O)C2(C)C)C(C)(C)C` (some centres undefined): the 90% effect level in series [1] (EC90) was put at 400 nM. Also, the results for the bioavailability in [2], in series [6] and in series [9] were 36%, 2% and 16%, respectively. In addition, the AUC (commonly the area under the concentration-time curve, a measure of exposure) in series [3] came out at 0.05 µM·h; in series [4], 1 µM·h; in series [10], 1.6 µM·h. Besides, the Selectivity ratio in [5] is 369. In addition, in series [7], the affinity corresponds to a Ki of 13 nM. Also, the Activity in series [8] is greater than 5 µM.
As for `CC(C)(C)NC(=O)N[C@H](C(=O)N1C[C@H]2[C@@H]([C@H]1C(=O)NC(CC1CCC1)C(=O)C(N)=O)C2(C)C)C(C)(C)C` (some centres undefined) [BOCEPREVIR], the Kp (commonly the ratio of the level in a tissue or fluid to that in plasma or blood) in series [11] worked out at 30. Moreover, the AUC in series [12] was 0.12 µM·h; in series [4] it was 1.52 µM·h; in series [15], 3.08 µM·h. For the same molecule, the bioavailability – broadly, dose-corrected exposure relative to a reference, in per cent – in series [13] is 30%; in series [14], 34%; in [9], 26%; in series [16], 4%. For the same molecule, the EC90 – broadly, the concentration at which the effect reaches the 90% level – in series [1] is 350 nM. In addition, the Selectivity ratio in [5] was 2200. Besides, in series [7], the inhibitory constant (Ki) (commonly the equilibrium dissociation constant of an inhibitor or competing ligand from its target) stood at 14 nM. For the same molecule, the Activity in series [8] is greater than 5 µM.
`CCCC(NC(=O)[C@@H]1[C@@H]2[C@H](CN1C(=O)[C@@H](NC(=O)OC(C)(C)C)C1CCCCC1)C2(C)C)C(=O)C(=O)NCC(=O)N[C@H](C)C1CCCCC1` (some centres undefined) had an inhibition constant Ki in series [7] of 100 nM. The AUC in series [17] is 0.09 µM·h.
Take `CC(C)(C)OC(=O)N[C@H](C(=O)N1C[C@H]2[C@@H]([C@H]1C(=O)NC(CC1CCC1)C(=O)C(N)=O)C2(C)C)C1CCCCC1` (some centres undefined): the AUC in series [12] was 0.11 µM·h; in [4], 1.5 µM·h. The 90% effect level in series [1] (EC90) was put at 700 nM. Moreover, the Selectivity ratio in [5] was determined as 138. Moreover, in series [7], the Ki came to 8 nM. For the same molecule, in series [8], the Activity was greater than 5 µM. The bioavailability in [9] was 28%; in [16] it was 1%.
In turn, `CCCC(NC(=O)[C@@H]1[C@@H]2[C@H](CN1C(=O)[C@@H](NC(=O)OC(C)(C)C)C1CCCCC1)C2(C)C)C(=O)C(=O)NCC(=O)NCc1cccs1` (some centres undefined) showed a Ki in series [7] of 60 nM. Also, the exposure (AUC) in series [17] was determined as 0.73 µM·h.
On to `CCCC(NC(=O)[C@@H]1[C@@H]2[C@H](CN1C(=O)[C@@H](NC(=O)OC(C)(C)C)C1CCCCC1)C2(C)C)C(=O)C(N)=O` (some centres undefined), for which the Selectivity ratio in series [5] came to 3. The same molecule returned an inhibitory constant (Ki) in series [7] of 100 nM. The AUC(0-t) (in general, the area under the concentration-time curve up to a stated or last time point) at 6 h in [18] turned out to be 2.52 µM·h.
As to `CCCC(NC(=O)[C@@H]1[C@@H]2[C@H](CN1C(=O)[C@@H](NC(=O)OC(C)(C)C)C1CCCCC1)C2(C)C)C(=O)C(=O)NCC(=O)NCc1ccccc1` (some centres undefined), the affinity in [7], expressed as Ki, was 56 nM. The same molecule returned an AUC in series [17] of 1.27 µM·h.

Values taken from ChEMBL document CHEMBL1137396, “Discovery of (1R,5S)-N-[3-amino-1-(cyclobutylmethyl)-2,3-dioxopropyl]- 3-[2(S)-[[[(1,1-dimethylethyl)amino]carbonyl]amino]-3,3-dimethyl-1-oxobutyl]- 6,6-dimethyl-3-azabicyclo[3.1.0]hexan-2(S)-carboxamide (SCH 503034), a selective, potent, orally bioavailable hepatitis C virus NS3 protease …” (J Med Chem, 2006).
